COC(=O)Nc1nc2ccc(Sc3ccccc3)cc2[nH]1
solubility (mole fraction)
Details | 283.15 K | 288.15 K | 293.15 K | 298.15 K | 303.15 K | 308.15 K | 313.15 K | 318.15 K | 323.15 K | 328.15 K
in DMF | 0.0397 | 0.0559 | 0.0731 | 0.0997 | 0.134 | 0.175 | 0.227 | 0.291 | 0.374 | 0.47
in ethanol | 0.000165 | 0.000219 | 0.000291 | 0.000378 | 0.000478 | 0.000598 | 0.000734 | 0.000918 | 0.00112 | 0.00137
in ethylene glycol | 0.000127 | 0.000171 | 0.000232 | 0.000305 | 0.0004 | 0.000513 | 0.000648 | 0.000812 | 0.00101 | 0.00126
in water | 3.69e-06 | 4.51e-06 | 5.71e-06 | 7.25e-06 | 9.03e-06 | 1.12e-05 | 1.38e-05 | 1.7e-05 | 2.07e-05 | 2.51e-05

Source: BigSolDB 2.1
